Assay results published in patent US11066425B1, “Oxo-substituted compound” (SUMITOMO DAINIPPON PHARMA CO., LTD., priority 2018, dated 2021).
Structures can show the parent of a compound that is named as a salt.

Test system: β-lactamase producing bacteria
Assay: Test Example 1: MIC of meropenem (MEPM) combined with test compound at fixed 4 μg/mL, broth microdilution
Format: cell-based
Details: relative to MEPM alone
Procedure: Test Example 1: Evaluation of Minimum Inhibitory Concentration (MIC) of MEPM Against β-Lactamase Producing Bacteria
To evaluate the β-lactamase inhibitory activity of test compounds, the effect of combination of a test compound and a β-lactam agent against β-lactamase producing bacteria was evaluated. Meropenem (MEPM) was used as a β-lactam antimicrobial agent. The minimum inhibitory concentration (MIC) of MEPM against β-lactamase producing bacteria when a test compound was added at a fixed concentration (4 μg/mL) was measured by broth microdilution method (common ratio: 2). MIC of MEPM decreasing to less than 1/32 in combination with a test compound is indicated by A, decreasing from 1/32 to 1/16 is indicated by B, decreasing from ⅛ to ¼ is indicated by C, and decreasing to ½ or others are indicated by D. “-” represents untested cases.

SMILES | Decrease of MIC of MEPM in combination with a test compound, E. coli ATCC BAA-2340 (KPC) | Decrease of MIC of MEPM in combination with a test compound, K. pneumoniae ATCC BAA-2344 (KPC) | Decrease of MIC of MEPM in combination with a test compound, K. pneumoniae ATCC BAA-2524 (OXA-48)
CC(=O)N1CC(Oc2ccc3c(c2C(=O)O)OB(O)CC3)C1 [Example 1, 7-[(1-acetylazetidin-3-yl)oxy]-2-hydroxy-3,4-dihydro-2H-1,2-benzoxaborinine-8-carboxylic Acid] | A (MIC of MEPM decreasing to less than 1/32 in combination with a test compound is indicated by A) | A (MIC of MEPM decreasing to less than 1/32 in combination with a test compound is indicated by A) | B (decreasing from 1/32 to 1/16 is indicated by B)
O=C(O)c1c(OC2CN(C(=O)Cc3cnc[nH]3)C2)ccc2c1OB(O)CC2 [Example 2, 2-hydroxy-7-({1-[(1H-imidazol-5-yl)acetyl]azetidin-3-yl}oxy)-3,4-dihydro-2H-1,2-benzoxaborinine-8-carboxylic Acid Hydrochloride] | A (MIC of MEPM decreasing to less than 1/32 in combination with a test compound is indicated by A) | A (MIC of MEPM decreasing to less than 1/32 in combination with a test compound is indicated by A) | B (decreasing from 1/32 to 1/16 is indicated by B)
CS(=O)(=O)N1CC(Oc2ccc3c(c2C(=O)O)OB(O)CC3)C1 [Example 3, 2-hydroxy-7-{[1-(methanesulfonyl)azetidin-3-yl]oxy}-3,4-dihydro-2H-1,2-benzoxaborinine-8-carboxylic] | A (MIC of MEPM decreasing to less than 1/32 in combination with a test compound is indicated by A) | A (MIC of MEPM decreasing to less than 1/32 in combination with a test compound is indicated by A) | B (decreasing from 1/32 to 1/16 is indicated by B)
N[C@@H](C(=O)N1CC(Oc2ccc3c(c2C(=O)O)O[B-](O)(O)CC3)C1)c1ccc(O)cc1 [Example 4, 8-({1-[(2R)-2-amino-2-(4-hydroxyphenyl)acetyl]azetidin-3-yl}oxy)-4,4-dihydroxy-5-oxa-4-boranuidabicyclo[4.4.0]deca-l(6),7,9-triene-7-carboxylic Acid Disodium Salt] | A (MIC of MEPM decreasing to less than 1/32 in combination with a test compound is indicated by A) | A (MIC of MEPM decreasing to less than 1/32 in combination with a test compound is indicated by A) | A (MIC of MEPM decreasing to less than 1/32 in combination with a test compound is indicated by A)
CON=C(C(=O)N1CC(Oc2ccc3c(c2C(=O)O)OB(O)CC3)C1)c1csc(N)n1 [Example 5, 7-({1-[(2-amino-1,3-thiazol-4-yl)(methoxyimino)acetyl]azetidin-3-yl}oxy)-2-hydroxy-3,4-dihydro-2H-1,2-benzoxaborinine-8-carboxylic acid] | A (MIC of MEPM decreasing to less than 1/32 in combination with a test compound is indicated by A) | B (decreasing from 1/32 to 1/16 is indicated by B) | C (decreasing from ⅛ to ¼ is indicated by C)
Cl.O=C(O)c1c(OC2CN(C(=O)c3ccccn3)C2)ccc2c1OB(O)CC2 [Example 6, 2-hydroxy-7-{[1-(pyridine-2-carbonyl)azetidin-3-yl]oxy}-3,4-dihydro-2H-1,2-benzoxaborinine-8-carboxylic acid hydrochloride] | A (MIC of MEPM decreasing to less than 1/32 in combination with a test compound is indicated by A) | A (MIC of MEPM decreasing to less than 1/32 in combination with a test compound is indicated by A) | B (decreasing from 1/32 to 1/16 is indicated by B)
CSCC(=O)N1CC(Oc2ccc3c(c2C(=O)O)O[B-](O)(O)CC3)C1 [Example 7, 4,4-dihydroxy-8-({1-[(methylsulfanyl)acetyl]azetidin-3-yl}oxy)-5-oxa-4-boranuidabicyclo[4.4.0]deca-l(6),7,9-triene-7-carboxylic acid disodium salt] | A (MIC of MEPM decreasing to less than 1/32 in combination with a test compound is indicated by A) | A (MIC of MEPM decreasing to less than 1/32 in combination with a test compound is indicated by A) | B (decreasing from 1/32 to 1/16 is indicated by B)
O=C(O)c1c(OC2CN(C(=O)c3nc[nH]n3)C2)ccc2c1O[B-](O)(O)CC2 [Example 8, 4,4-dihydroxy-8-{[1-(1H-1,2,4-triazole-3-carbonyl)azetidin-3-yl]oxy}-5-oxa-4-boranuidabicyclo[4.4.0]deca-l(6),7,9-triene-7-carboxylic acid disodium salt] | A (MIC of MEPM decreasing to less than 1/32 in combination with a test compound is indicated by A) | A (MIC of MEPM decreasing to less than 1/32 in combination with a test compound is indicated by A) | B (decreasing from 1/32 to 1/16 is indicated by B)
O=C(O)c1c(OC2CN(C(=O)c3cccc[n+]3[O-])C2)ccc2c1O[B-](O)(O)CC2 [Example 9, 4,4-dihydroxy-8-{[1-(1-oxido-2-pyridinylcarbonyl)azetidin-3-yl]oxy}-5-oxa-4-boranuidabicyclo[4.4.0]deca-l(6),7,9-triene-7-carboxylic acid disodium salt] | A (MIC of MEPM decreasing to less than 1/32 in combination with a test compound is indicated by A) | A (MIC of MEPM decreasing to less than 1/32 in combination with a test compound is indicated by A) | A (MIC of MEPM decreasing to less than 1/32 in combination with a test compound is indicated by A)
N[C@@H](C(=O)N1CC(Oc2ccc3c(c2C(=O)O)O[B-](O)(O)CC3)C1)c1ccccc1 [Example 10, 8-({1-[(2R)-2-amino-2-phenylacetyl]azetidin-3-yl}oxy)-4,4-dihydroxy-5-oxa-4-boranuidabicyclo[4.4.0]deca-l(6),7,9-triene-7-carboxylic acid disodium salt] | A (MIC of MEPM decreasing to less than 1/32 in combination with a test compound is indicated by A) | A (MIC of MEPM decreasing to less than 1/32 in combination with a test compound is indicated by A) | B (decreasing from 1/32 to 1/16 is indicated by B)
O=C(O)c1c(OC2CN(C(=O)c3ccccc3)C2)ccc2c1O[B-](O)(O)CC2 [Example 11, 8-[(1-benzoylazetidin-3-yl)oxy]-4,4-dihydroxy-5-oxa-4-boranuidabicyclo[4.4.0]deca-l(6),7,9-triene-7-carboxylic acid disodium salt] | A (MIC of MEPM decreasing to less than 1/32 in combination with a test compound is indicated by A) | B (decreasing from 1/32 to 1/16 is indicated by B) | B (decreasing from 1/32 to 1/16 is indicated by B)
O=C(O)c1c(OC2CN(C(=O)c3cccnc3)C2)ccc2c1O[B-](O)(O)CC2 [Example 12, 4,4-dihydroxy-8-{[1-(pyridine-3-carbonyl)azetidin-3-yl]oxy}-5-oxa-4-boranuidabicyclo[4.4.0]deca-l(6),7,9-triene-7-carboxylic acid disodium salt] | A (MIC of MEPM decreasing to less than 1/32 in combination with a test compound is indicated by A) | A (MIC of MEPM decreasing to less than 1/32 in combination with a test compound is indicated by A) | B (decreasing from 1/32 to 1/16 is indicated by B)
O=C(O)c1c(OC2CN(C(=O)Cc3ccccn3)C2)ccc2c1O[B-](O)(O)CC2 [Example 13, 4,4-dihydroxy-8-({1-[(pyridin-2-yl)acetyl]azetidin-3-yl}oxy)-5-oxa-4-boranuidabicyclo[4.4.0]deca-l(6),7,9-triene-7-carboxylic acid disodium salt] | A (MIC of MEPM decreasing to less than 1/32 in combination with a test compound is indicated by A) | A (MIC of MEPM decreasing to less than 1/32 in combination with a test compound is indicated by A) | B (decreasing from 1/32 to 1/16 is indicated by B)
